From patent publication US7612055B2, “Macrocyclic lactams and pharmaceutical use thereof” (Novartis AG, priority 2003, dated 2009)

melting point: 178 to 182 °C
SMILES: CCCCNC(=O)C(C)CC(O)C1C[C@H](C)CCCCCCNc2cc(cc(OC)n2)C(=O)N1 (stereo partly drawn) [Example 11, N-Butyl-4-hydroxy-4-((9R)-16-methoxy-9-methyl-13-oxo-2,12,17-triaza-bicyclo[12.3.1]octadeca-1(17),14(18),15-trien-11-yl)-2-methyl-butyramide]
